Key:
[1] = test system: HCT116 colorectal cancer cells; assay: Cisplatin Sensitization Assay (96 h cell viability MTS); format: cell-based; conditions: concentration of compound required to reduce the IC50 of Cisplatin alone by at least 3-fold; HCT116, 96 h MTS
Procedure, shortened: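 HCT116 cells treated 96 h at 37 °C with compound and cisplatin together as a full matrix of 2-fold dilutions, each from 10 μM final top concentration. Viability by MTS, absorbance 490 nm. Value reported: compound concentration lowering cisplatin IC50 at least 3-fold.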

[2] = molecular target: T1, ATR kinase, in the presence of partner proteins ATRIP, CLK2 and TopBP1 (Homo sapiens, UniProt Q13535); assay: ATR-Complex Inhibition Assay (radioactive-phosphate incorporation); format: biochemical; conditions: Ki(app); 4 nM full-length ATR, 40 nM ATRIP, 40 nM CLK2, 600 nM TopBP1(A891-S1105), 10 μM ATP, 25° C.
T1 construct: in the presence of 4 nM full-length ATR, 40 nM full-length ATRIP
Procedure: Compounds were screened for their ability to inhibit ATR kinase, in the presence of partner proteins ATRIP, CLK2 and TopBP1, using a radioactive-phosphate incorporation assay. Assays were carried out in a mixture of 50 mM Tris/HCl (pH 7.5), 10 mM MgCl2 and 1 mM DTT. Final substrate concentrations were 10 μM [g-33P]ATP (3.5 μCi 33P ATP/nmol ATP, Perkin Elmer, Massachusetts, USA) and 800 μM target peptide (ASELPASQPQPFSAKKK (SEQ. ID NO: 1)), Isca Biochemicals, Cambridgeshire, UK).
Assays were carried out at 25° C. in the presence of 4 nM full-length ATR, 40 nM full-length ATRIP, 40 nM full-length CLK2 and 600 nM TopBP1(A891-S1105). An enzyme stock buffer solution was prepared containing all of the reagents listed above, with the exception of target peptide, ATP and the test compound of interest. This enzyme stock was pre-incubated for 30 minutes at 25° C. […]
After removing mean background values for all of the data points, Ki(app) data were calculated from non-linear regression analysis of the initial rate data using the Prism software package (GraphPad Prism version 6.0c for Macintosh, GraphPad Software Inc., San Diego, USA).

[3] = molecular target: T2, ATR kinase (full-length ATR) (Homo sapiens, UniProt Q13535); assay: ATR Inhibition Assay (radioactive-phosphate incorporation); format: biochemical; conditions: Ki(app); 5 nM full-length ATR, 10 μM ATP, 800 μM target peptide, 25° C.
T2 construct: in the presence of 5 nM full-length ATR
T2 sequence (Q13535 whole entry): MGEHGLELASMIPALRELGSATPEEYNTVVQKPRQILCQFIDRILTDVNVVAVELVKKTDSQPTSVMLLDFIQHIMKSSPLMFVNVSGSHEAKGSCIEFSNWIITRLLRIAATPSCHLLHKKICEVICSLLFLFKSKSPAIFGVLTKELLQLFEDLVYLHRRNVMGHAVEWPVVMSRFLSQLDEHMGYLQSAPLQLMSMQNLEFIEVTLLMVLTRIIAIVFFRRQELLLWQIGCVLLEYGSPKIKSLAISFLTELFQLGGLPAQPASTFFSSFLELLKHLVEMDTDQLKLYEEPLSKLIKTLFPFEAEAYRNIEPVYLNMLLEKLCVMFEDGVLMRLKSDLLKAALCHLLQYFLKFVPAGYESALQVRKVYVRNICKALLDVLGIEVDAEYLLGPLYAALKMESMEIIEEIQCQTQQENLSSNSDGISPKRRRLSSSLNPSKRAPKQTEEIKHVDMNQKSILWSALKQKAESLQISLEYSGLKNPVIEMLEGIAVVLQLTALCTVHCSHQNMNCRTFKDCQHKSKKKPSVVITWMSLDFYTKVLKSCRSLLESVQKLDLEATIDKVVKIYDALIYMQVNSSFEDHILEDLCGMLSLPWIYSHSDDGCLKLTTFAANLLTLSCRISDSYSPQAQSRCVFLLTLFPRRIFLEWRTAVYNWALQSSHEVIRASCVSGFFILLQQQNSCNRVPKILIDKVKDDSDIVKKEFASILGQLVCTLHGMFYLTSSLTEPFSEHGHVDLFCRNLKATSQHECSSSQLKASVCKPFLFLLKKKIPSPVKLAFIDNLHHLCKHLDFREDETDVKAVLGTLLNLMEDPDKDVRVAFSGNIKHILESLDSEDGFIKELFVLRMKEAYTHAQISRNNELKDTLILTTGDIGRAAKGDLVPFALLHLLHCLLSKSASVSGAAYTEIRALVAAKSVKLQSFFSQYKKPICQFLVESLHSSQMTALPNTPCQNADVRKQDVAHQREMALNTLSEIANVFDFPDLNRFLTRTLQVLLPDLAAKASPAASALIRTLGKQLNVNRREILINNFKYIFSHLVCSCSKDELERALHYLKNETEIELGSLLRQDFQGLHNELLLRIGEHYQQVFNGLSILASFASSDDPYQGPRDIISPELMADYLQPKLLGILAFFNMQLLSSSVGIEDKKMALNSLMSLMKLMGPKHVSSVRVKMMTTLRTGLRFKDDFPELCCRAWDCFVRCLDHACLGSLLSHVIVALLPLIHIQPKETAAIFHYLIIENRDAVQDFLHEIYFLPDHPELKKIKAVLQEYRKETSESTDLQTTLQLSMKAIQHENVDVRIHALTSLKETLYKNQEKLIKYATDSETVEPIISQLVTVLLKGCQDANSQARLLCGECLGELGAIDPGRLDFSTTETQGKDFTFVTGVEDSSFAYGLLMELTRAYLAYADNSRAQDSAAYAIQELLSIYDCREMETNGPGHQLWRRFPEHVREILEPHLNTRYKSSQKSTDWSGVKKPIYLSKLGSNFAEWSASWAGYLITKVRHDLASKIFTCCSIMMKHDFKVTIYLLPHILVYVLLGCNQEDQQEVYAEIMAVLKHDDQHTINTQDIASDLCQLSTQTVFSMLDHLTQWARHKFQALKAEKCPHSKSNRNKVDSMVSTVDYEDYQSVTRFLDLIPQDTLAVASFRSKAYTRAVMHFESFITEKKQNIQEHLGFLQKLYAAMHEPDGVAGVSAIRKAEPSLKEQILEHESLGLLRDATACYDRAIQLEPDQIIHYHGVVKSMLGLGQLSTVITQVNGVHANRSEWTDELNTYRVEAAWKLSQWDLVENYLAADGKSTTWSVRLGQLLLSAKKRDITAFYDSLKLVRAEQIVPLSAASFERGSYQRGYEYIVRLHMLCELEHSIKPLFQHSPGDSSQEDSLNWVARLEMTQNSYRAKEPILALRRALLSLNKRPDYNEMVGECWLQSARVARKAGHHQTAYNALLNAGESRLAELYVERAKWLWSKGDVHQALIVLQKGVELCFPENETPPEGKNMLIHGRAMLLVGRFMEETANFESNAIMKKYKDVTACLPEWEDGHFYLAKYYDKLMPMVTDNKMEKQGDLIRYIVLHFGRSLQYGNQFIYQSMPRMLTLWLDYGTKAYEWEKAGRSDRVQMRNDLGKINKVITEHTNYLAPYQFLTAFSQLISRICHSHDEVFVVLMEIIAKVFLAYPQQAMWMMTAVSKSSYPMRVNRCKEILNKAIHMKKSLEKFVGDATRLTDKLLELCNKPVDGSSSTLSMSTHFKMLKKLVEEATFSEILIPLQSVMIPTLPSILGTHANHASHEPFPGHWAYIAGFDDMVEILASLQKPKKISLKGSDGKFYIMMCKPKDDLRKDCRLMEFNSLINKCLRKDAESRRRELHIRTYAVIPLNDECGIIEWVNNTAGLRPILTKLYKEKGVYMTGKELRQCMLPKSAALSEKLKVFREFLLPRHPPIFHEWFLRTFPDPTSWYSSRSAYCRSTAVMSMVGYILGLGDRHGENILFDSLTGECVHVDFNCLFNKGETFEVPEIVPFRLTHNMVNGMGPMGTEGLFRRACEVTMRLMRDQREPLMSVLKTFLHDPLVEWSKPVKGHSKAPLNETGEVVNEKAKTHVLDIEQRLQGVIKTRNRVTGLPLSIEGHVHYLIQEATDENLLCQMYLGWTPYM

T1 sequence (Q13535 whole entry): as above
T1 sequence (Q8WXE1 whole entry partner): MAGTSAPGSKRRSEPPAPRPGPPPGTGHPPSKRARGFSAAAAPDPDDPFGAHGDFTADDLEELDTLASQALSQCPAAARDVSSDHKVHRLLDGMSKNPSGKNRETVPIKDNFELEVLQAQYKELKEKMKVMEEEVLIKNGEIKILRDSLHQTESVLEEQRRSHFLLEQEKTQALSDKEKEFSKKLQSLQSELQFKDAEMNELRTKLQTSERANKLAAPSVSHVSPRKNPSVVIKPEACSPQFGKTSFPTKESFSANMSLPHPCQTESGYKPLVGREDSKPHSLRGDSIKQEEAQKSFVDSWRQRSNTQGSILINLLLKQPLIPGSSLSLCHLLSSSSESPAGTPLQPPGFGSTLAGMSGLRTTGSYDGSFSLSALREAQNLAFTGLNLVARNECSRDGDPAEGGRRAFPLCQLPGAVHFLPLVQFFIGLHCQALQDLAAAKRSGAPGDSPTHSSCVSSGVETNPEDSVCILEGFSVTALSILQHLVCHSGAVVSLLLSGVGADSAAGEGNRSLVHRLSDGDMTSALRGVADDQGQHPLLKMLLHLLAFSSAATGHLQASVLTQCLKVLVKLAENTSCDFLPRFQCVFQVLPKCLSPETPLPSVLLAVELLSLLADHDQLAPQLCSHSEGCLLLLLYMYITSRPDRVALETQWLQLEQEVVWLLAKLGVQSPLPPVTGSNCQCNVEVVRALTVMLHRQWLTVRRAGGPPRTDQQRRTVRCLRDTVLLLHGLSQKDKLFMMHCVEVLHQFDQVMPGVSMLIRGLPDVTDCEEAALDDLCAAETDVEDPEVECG

SMILES	Ki [2] [nM]	Ki [3] [nM]	Cisplatin Sensitization Assay [1]
CN1CCN(C(=O)c2ccc(-c3cnncc3NC(=O)c3c(N)nn4cc(F)cnc34)cc2)CC1 [I-B-13, 2-amino-6-fluoro-N-(5-(4-(4-methylpiperazine-1-carbonyl)phenyl)pyridazin-4-yl)pyrazolo[1,5-a]pyrimidine-3-carboxamide]	< 10	10 to 1000	++ (Compounds with a Cisplatin sensitization value >0.02 μM but <0.2 μM are marked with “++.”)
Nc1nn2cc(F)cnc2c1C(=O)Nc1ccncc1N1CCN(C2COC2)CC1 [I-C-1, 2-amino-6-fluoro-N-(3-(4-(oxetan-3-yl)piperazin-1-yl)pyridin-4-yl)pyrazolo[1,5-a]pyrimidine-3-carboxamide]	< 10	10 to 1000	++ (Compounds with a Cisplatin sensitization value >0.02 μM but <0.2 μM are marked with “++.”)
Cc1nsc(NC(=O)c2c(N)nn3cc(F)cnc23)c1-n1cccn1 [I-E-10, 2-amino-6-fluoro-N-(3-methyl-4-(1H-pyrazol-1-yl)isothiazol-5-yl)pyrazolo[1,5-a]pyrimidine-3-carboxamide]		< 10	+++ (Compounds with a Cisplatin sensitization value of <0.02 μM are marked with “+++.”)
Cc1nsc(NC(=O)c2c(N)nn3cc(F)cnc23)c1CN1CCOCC1 [I-E-15, 2-amino-6-fluoro-N-(3-methyl-4-(morpholinomethyl)isothiazol-5-yl)pyrazolo[1,5-a]pyrimidine-3-carboxamide]		10 to 1000	+++ (Compounds with a Cisplatin sensitization value of <0.02 μM are marked with “+++.”)
Cc1cc(-c2c(C)nsc2NC(=O)c2c(N)nn3cc(F)cnc23)n(C)n1 [I-E-16, 2-amino-N-(4-(1,3-dimethyl-1H-pyrazol-5-yl)-3-methylisothiazol-5-yl)-6-fluoropyrazolo[1,5-a]pyrimidine-3-carboxamide]		10 to 1000	+++ (Compounds with a Cisplatin sensitization value of <0.02 μM are marked with “+++.”)
Cc1nsc(NC(=O)c2c(N)nn3cc(F)cnc23)c1CN1CCCC1 [I-E-17, 2-amino-6-fluoro-N-(3-methyl-4-(pyrrolidin-1-ylmethyl)isothiazol-5-yl)pyrazolo[1,5-a]pyrimidine-3-carboxamide]		< 10	+++ (Compounds with a Cisplatin sensitization value of <0.02 μM are marked with “+++.”)
Cc1nsc(NC(=O)c2c(N)nn3cc(F)cnc23)c1CN1CCN(C)CC1 [I-E-19, 2-amino-6-fluoro-N-(3-methyl-4-((4-methylpiperazin-1-yl)methyl)isothiazol-5-yl)pyrazolo[1,5-a]pyrimidine-3-carboxamide]		< 10	+++ (Compounds with a Cisplatin sensitization value of <0.02 μM are marked with “+++.”)
COCc1c(C)nsc1NC(=O)c1c(N)nn2cc(F)cnc12 [I-E-20, 2-amino-6-fluoro-N-(4-(methoxymethyl)-3-methylisothiazol-5-yl)pyrazolo[1,5-a]pyrimidine-3-carboxamide]		10 to 1000	+++ (Compounds with a Cisplatin sensitization value of <0.02 μM are marked with “+++.”)
Cc1nsc(NC(=O)c2c(N)nn3cc(F)cnc23)c1N1CCCC1 [I-E-21, 2-amino-6-fluoro-N-(3-methyl-4-(pyrrolidin-1-yl)isothiazol-5-yl)pyrazolo[1,5-a]pyrimidine-3-carboxamide]		10 to 1000	++ (Compounds with a Cisplatin sensitization value >0.02 μM but <0.2 μM are marked with “++.”)

Further lines, with some results ahead:

Ki [2] [nM]	Ki [3] [nM]	SMILES	Cisplatin Sensitization Assay [1]
	10 to 1000	Cc1nsc(NC(=O)c2c(N)nn3cc(F)cnc23)c1-c1cncnc1 [I-E-11, 2-amino-6-fluoro-N-(3-methyl-4-(pyrimidin-5-yl)isothiazol-5-yl)pyrazolo[1,5-a]pyrimidine-3-carboxamide]	++ (Compounds with a Cisplatin sensitization value >0.02 μM but <0.2 μM are marked with “++.”)
	10 to 1000	Cc1nsc(NC(=O)c2c(N)nn3cc(F)cnc23)c1-c1cnn(C)c1 [I-E-12, 2-amino-6-fluoro-N-(3-methyl-4-(1-methyl-1H-pyrazol-4-yl)isothiazol-5-yl)pyrazolo[1,5-a]pyrimidine-3-carboxamide]	++ (Compounds with a Cisplatin sensitization value >0.02 μM but <0.2 μM are marked with “++.”)
	10 to 1000	Cc1cc(-c2c(C)nsc2NC(=O)c2c(N)nn3cc(F)cnc23)ccn1 [I-E-13, 2-amino-6-fluoro-N-(3-methyl-4-(2-methylpyridin-4-yl)isothiazol-5-yl)pyrazolo[1,5-a]pyrimidine-3-carboxamide]	+++ (Compounds with a Cisplatin sensitization value of <0.02 μM are marked with “+++.”)
	10 to 1000	Cc1nsc(NC(=O)c2c(N)nn3cc(F)cnc23)c1-c1ccncc1 [I-E-14, 2-amino-6-fluoro-N-(3-methyl-4-(pyridin-4-yl)isothiazol-5-yl)pyrazolo[1,5-a]pyrimidine-3-carboxamide]	+++ (Compounds with a Cisplatin sensitization value of <0.02 μM are marked with “+++.”)
	10 to 1000	Cc1nn(C)cc1-c1c(C)nsc1NC(=O)c1c(N)nn2cc(F)cnc12 [I-E-18, 2-amino-N-(4-(1,3-dimethyl-1H-pyrazol-4-yl)-3-methylisothiazol-5-yl)-6-fluoropyrazolo[1,5-a]pyrimidine-3-carboxamide]	+++ (Compounds with a Cisplatin sensitization value of <0.02 μM are marked with “+++.”)
